Results as given in ChEMBL document CHEMBL3991601, “The target landscape of clinical kinase drugs” (Science, 2017).
Calls of active or inactive are those of the source. Cut-off read from the data, not from the text of the source, for most assays here: actives have a measured Kd and inactives only a lower limit.

Columns and labels:
[1] = molecular target: Cyclin-dependent kinase 6 (Homo sapiens, UniProt Q00534)
[2] = molecular target: BMP-2-inducible protein kinase (Homo sapiens, UniProt Q9NSY1)
[3] = molecular target: T1, Peroxisomal acyl-coenzyme A oxidase 3 (Homo sapiens, UniProt O15254)
T1 sequence (O15254 whole entry): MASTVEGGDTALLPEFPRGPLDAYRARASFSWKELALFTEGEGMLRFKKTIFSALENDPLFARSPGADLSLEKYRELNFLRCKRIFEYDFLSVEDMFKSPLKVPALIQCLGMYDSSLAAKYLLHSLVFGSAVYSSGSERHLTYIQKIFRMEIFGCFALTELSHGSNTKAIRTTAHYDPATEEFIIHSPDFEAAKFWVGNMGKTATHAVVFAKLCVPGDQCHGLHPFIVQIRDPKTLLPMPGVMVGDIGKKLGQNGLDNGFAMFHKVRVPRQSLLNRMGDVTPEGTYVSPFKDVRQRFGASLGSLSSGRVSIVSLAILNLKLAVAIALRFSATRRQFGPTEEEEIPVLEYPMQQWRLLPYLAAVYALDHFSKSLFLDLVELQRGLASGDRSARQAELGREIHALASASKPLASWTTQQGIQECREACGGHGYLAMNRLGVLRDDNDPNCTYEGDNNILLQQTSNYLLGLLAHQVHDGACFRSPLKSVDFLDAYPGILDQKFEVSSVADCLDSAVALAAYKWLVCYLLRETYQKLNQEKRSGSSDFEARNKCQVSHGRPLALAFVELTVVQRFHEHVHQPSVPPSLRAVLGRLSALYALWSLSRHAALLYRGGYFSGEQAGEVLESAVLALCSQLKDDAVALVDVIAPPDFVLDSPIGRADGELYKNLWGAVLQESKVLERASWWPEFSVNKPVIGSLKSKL

Ephrin type-A receptor 7 = Ephrin type-A receptor 7 (Homo sapiens, UniProt Q15375)
Insulin receptor = Insulin receptor (Homo sapiens, UniProt P06213)
[4] = molecular target: Calcium/calmodulin-dependent protein kinase kinase 2 (Homo sapiens, UniProt Q96RR4)
[5] = molecular target: Receptor-interacting serine/threonine-protein kinase 3 (Homo sapiens, UniProt Q9Y572)
[6] = molecular target: T2, Tyrosine-protein kinase Tec (Homo sapiens, UniProt P42680)
T2 sequence (P42680 whole entry): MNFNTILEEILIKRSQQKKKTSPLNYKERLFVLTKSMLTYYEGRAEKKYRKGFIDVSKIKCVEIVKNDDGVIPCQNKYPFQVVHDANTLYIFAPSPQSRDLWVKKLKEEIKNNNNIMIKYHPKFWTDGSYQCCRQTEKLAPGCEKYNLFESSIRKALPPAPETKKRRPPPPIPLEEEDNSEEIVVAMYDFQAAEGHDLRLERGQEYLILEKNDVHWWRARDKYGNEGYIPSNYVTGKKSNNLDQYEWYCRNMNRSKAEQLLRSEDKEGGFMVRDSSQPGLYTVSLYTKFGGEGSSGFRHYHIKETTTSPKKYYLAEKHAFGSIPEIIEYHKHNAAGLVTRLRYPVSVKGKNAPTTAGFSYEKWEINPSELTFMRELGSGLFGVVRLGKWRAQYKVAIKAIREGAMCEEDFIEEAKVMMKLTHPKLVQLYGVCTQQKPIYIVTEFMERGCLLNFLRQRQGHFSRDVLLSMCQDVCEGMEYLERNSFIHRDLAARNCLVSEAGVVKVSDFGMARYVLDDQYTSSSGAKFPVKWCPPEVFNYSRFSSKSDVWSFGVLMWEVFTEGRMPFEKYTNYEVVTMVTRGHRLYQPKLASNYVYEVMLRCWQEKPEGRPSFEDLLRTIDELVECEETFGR

[7] = molecular target: Mitogen-activated protein kinase kinase kinase 4 (Homo sapiens, UniProt Q9Y6R4)
[8] = molecular target: Myosin light chain kinase, smooth muscle (Homo sapiens, UniProt Q15746)
Ephrin type-A receptor 2 = Ephrin type-A receptor 2 (Homo sapiens, UniProt P29317)
[9] = molecular target: Cyclin-dependent kinase 3 (Homo sapiens, UniProt Q00526)
[10] = molecular target: U5 small nuclear ribonucleoprotein 200 kDa helicase (Homo sapiens, UniProt O75643)
[11] = molecular target: T3, Beta-adrenergic receptor kinase 1 (Homo sapiens, UniProt P25098)
T3 sequence (P25098 whole entry): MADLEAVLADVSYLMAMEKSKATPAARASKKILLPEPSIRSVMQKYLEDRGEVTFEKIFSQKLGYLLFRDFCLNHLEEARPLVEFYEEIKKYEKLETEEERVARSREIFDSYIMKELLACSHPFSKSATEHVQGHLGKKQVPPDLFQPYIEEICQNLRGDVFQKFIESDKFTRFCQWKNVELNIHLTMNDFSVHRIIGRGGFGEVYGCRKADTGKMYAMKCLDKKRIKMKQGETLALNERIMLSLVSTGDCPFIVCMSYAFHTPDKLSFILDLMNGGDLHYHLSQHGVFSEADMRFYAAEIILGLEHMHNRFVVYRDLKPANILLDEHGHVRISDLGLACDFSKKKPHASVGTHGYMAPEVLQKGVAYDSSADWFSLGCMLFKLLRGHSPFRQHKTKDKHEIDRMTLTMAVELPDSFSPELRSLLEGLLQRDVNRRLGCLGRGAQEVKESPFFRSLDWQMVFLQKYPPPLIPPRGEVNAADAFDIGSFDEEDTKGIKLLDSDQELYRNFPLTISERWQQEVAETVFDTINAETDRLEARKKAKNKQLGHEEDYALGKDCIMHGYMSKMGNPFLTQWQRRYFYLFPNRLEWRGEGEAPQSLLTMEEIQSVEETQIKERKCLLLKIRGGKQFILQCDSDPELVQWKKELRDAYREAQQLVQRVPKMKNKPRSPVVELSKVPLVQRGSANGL

[12] = molecular target: Ribosomal protein S6 kinase alpha-1 (Homo sapiens, UniProt Q15418)
Adenosine kinase = Adenosine kinase (Homo sapiens, UniProt P55263)
Note: in the data inactive means no Kd found up to 30 µM.

Sequence of Calcium/calmodulin-dependent protein kinase kinase 2 (Q96RR4 whole entry): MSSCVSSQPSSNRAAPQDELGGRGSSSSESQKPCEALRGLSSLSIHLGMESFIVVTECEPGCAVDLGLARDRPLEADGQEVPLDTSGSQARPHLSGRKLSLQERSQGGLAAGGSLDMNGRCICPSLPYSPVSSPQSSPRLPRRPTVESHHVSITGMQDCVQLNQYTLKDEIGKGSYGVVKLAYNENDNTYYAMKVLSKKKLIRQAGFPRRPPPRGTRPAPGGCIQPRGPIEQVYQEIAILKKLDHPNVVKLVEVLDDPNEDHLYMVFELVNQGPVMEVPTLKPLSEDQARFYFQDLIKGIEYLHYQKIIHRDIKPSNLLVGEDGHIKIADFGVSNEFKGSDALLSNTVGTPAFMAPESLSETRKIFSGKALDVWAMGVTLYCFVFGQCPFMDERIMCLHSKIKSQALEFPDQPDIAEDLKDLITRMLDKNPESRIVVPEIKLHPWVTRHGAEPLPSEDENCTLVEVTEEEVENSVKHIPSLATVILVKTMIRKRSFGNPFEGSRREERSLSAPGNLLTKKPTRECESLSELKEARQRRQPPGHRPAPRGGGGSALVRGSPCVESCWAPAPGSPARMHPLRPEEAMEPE
Sequence of BMP-2-inducible protein kinase (Q9NSY1 whole entry): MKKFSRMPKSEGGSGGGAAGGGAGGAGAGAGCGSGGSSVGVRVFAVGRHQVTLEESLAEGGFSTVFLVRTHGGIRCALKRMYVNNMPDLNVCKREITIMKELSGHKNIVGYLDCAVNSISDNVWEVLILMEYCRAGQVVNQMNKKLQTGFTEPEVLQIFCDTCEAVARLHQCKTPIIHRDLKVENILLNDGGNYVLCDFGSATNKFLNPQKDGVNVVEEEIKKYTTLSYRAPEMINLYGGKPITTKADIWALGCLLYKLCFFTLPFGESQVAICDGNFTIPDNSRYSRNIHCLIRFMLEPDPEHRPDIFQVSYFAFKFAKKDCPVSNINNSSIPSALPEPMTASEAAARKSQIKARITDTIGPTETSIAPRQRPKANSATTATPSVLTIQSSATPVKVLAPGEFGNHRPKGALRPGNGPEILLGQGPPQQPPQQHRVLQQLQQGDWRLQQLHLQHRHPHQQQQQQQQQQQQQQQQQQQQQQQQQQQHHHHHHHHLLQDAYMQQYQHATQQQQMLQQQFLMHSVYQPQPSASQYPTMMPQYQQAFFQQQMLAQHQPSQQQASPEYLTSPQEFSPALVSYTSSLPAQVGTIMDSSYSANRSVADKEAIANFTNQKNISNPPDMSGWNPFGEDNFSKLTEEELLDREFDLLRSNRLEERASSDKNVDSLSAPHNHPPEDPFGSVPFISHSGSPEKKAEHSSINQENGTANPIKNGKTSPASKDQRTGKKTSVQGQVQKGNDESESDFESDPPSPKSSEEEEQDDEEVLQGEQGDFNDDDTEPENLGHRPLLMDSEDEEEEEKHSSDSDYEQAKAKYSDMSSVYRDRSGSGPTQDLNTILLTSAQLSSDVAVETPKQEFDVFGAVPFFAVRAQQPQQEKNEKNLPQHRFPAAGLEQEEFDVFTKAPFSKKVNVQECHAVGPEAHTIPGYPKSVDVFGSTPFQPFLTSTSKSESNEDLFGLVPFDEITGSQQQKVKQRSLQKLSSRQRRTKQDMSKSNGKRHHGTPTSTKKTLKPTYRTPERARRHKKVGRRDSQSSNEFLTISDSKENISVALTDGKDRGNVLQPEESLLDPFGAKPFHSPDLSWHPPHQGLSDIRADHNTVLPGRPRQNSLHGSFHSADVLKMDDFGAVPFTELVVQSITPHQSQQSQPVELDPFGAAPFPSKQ
Sequence of Insulin receptor (P06213 28-758 limits assumed): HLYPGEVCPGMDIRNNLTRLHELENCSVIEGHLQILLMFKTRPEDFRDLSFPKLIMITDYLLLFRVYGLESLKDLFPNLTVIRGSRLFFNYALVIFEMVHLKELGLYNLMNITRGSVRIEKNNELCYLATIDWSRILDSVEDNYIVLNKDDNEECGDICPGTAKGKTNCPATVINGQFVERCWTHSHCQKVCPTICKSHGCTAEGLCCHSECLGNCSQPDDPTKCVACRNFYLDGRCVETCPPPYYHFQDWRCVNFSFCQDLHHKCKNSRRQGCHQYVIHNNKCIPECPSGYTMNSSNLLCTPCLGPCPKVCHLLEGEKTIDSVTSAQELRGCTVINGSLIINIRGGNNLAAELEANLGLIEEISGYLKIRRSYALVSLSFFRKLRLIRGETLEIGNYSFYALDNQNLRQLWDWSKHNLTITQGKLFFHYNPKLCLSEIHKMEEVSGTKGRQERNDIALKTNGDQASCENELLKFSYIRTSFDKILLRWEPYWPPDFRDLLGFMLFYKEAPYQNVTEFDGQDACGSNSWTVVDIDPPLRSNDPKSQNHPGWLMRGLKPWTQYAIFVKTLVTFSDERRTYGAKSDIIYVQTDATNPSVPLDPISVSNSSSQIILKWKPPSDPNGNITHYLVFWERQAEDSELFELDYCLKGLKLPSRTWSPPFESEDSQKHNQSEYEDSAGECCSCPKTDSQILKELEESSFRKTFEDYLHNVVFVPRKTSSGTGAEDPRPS
Sequence of Insulin receptor (P06213 763-1382 limits assumed): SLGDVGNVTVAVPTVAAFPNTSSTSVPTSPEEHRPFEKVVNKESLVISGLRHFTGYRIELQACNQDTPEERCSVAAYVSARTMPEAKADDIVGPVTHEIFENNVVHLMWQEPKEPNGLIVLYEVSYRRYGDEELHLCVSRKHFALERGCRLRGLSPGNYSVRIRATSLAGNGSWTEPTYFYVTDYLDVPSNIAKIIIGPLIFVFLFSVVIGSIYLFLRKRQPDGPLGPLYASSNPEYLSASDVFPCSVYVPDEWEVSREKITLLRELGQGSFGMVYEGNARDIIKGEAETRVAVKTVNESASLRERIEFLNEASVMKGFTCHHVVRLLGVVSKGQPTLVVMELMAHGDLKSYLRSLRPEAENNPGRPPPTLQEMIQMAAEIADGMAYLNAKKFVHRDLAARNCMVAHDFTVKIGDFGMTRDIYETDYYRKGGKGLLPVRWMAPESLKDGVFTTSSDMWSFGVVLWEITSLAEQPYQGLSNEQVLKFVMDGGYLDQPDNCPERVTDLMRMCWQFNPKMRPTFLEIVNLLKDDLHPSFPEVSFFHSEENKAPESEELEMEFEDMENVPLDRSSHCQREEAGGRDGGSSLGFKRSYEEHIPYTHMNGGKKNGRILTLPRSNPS
Sequence of Ephrin type-A receptor 2 (P29317 whole entry): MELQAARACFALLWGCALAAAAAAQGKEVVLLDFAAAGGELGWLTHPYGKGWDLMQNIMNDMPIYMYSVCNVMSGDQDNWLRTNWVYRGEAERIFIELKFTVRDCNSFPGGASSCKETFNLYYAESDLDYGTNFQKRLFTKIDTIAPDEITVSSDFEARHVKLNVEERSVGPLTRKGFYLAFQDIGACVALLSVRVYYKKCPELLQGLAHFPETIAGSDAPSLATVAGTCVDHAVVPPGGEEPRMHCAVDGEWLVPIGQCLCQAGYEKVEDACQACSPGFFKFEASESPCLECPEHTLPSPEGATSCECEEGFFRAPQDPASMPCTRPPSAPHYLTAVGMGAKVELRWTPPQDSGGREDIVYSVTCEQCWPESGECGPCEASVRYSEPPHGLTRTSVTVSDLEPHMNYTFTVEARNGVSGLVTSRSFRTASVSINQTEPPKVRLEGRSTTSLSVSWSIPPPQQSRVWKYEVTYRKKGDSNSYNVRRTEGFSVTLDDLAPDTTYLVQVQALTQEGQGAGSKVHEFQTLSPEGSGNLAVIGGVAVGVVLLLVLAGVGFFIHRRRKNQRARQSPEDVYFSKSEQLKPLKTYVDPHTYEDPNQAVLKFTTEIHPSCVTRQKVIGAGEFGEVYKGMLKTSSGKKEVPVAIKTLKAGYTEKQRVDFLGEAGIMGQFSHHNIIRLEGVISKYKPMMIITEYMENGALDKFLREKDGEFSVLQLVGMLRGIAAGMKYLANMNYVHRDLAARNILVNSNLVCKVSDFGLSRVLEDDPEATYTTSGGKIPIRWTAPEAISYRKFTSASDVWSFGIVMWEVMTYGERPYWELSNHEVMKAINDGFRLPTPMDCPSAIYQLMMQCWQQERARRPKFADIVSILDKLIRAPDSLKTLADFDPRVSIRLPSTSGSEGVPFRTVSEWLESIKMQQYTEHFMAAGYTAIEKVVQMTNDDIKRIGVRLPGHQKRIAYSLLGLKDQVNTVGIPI
Sequence of Cyclin-dependent kinase 3 (Q00526 whole entry): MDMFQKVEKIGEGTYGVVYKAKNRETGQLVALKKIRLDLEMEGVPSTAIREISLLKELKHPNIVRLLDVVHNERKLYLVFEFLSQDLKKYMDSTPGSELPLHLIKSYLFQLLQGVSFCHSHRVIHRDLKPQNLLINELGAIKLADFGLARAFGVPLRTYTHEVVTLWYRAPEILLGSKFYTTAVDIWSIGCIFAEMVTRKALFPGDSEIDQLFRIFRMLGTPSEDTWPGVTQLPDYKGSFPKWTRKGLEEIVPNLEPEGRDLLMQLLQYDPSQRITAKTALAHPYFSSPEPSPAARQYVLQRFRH
Sequence of Cyclin-dependent kinase 6 (Q00534 whole entry): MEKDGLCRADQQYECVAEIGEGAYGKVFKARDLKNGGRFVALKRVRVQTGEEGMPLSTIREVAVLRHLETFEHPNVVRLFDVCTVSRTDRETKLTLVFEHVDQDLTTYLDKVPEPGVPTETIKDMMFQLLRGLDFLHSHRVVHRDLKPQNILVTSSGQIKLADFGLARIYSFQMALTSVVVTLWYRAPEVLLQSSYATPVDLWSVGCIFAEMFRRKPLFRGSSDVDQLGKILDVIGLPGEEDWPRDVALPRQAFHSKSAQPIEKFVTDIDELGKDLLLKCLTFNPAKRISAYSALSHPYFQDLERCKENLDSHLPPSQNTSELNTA

SMILES | Kd [1] | Kd [2] | Kd [3] | Kd (Ephrin type-A receptor 7) | Kd (Insulin receptor) | Kd [4] | Kd [5] | Kd [6] | Kd [7] | Kd [8] | Kd (Ephrin type-A receptor 2) | Kd [9] | Kd [10] | Kd [11] | Kd [12] | Kd (Adenosine kinase)
C[C@@H](Oc1cc(C(=O)Nc2ccc(C(=O)N3CCN(C)CC3)cc2)nnc1N)c1c(Cl)ccc(F)c1Cl | > 30 µM (inactive) | > 30 µM (inactive) | > 30 µM (inactive) | > 30 µM (inactive) | > 30 µM (inactive) | > 30 µM (inactive) | > 30 µM (inactive) | > 30 µM (inactive) | > 30 µM (inactive) | > 30 µM (inactive) | > 30 µM (inactive) | > 30 µM (inactive) | > 30 µM (inactive) | > 30 µM (inactive) | > 30 µM (inactive) | –
C[C@H]1CNCCCN1S(=O)(=O)c1cccc2cncc(F)c12 | > 30 µM (inactive) | > 30 µM (inactive) | > 30 µM (inactive) | – | > 30 µM (inactive) | > 30 µM (inactive) | > 30 µM (inactive) | > 30 µM (inactive) | > 30 µM (inactive) | > 30 µM (inactive) | > 30 µM (inactive) | > 30 µM (inactive) | > 30 µM (inactive) | > 30 µM (inactive) | > 30 µM (inactive) | > 30 µM (inactive)
CCNC(=O)C#Cc1ccc2c(c1)NC(=O)/C2=C(\Nc1ccc(CN(C)C)cc1)c1ccccc1 | 2.97 µM (active) | > 30 µM (inactive) | > 30 µM (inactive) | > 30 µM (inactive) | > 30 µM (inactive) | > 30 µM (inactive) | > 30 µM (inactive) | 0.885 µM (active) | > 30 µM (inactive) | > 30 µM (inactive) | > 30 µM (inactive) | 0.897 µM (active) | > 30 µM (inactive) | > 30 µM (inactive) | 0.799 µM (active) | > 30 µM (inactive)
COc1cc(Nc2ncc3c(n2)-c2ccc(Cl)cc2C(c2c(F)cccc2OC)=NC3)ccc1C(=O)O [ALISERTIB] | > 30 µM (inactive) | > 30 µM (inactive) | > 30 µM (inactive) | > 30 µM (inactive) | – | > 30 µM (inactive) | > 30 µM (inactive) | > 30 µM (inactive) | > 30 µM (inactive) | > 30 µM (inactive) | – | > 30 µM (inactive) | > 30 µM (inactive) | > 30 µM (inactive) | > 30 µM (inactive) | > 30 µM (inactive)
CNC(=O)c1ccccc1Sc1ccc2c(/C=C/c3ccccn3)n[nH]c2c1 [AXITINIB] | > 30 µM (inactive) | – | > 30 µM (inactive) | – | – | – | > 30 µM (inactive) | – | – | – | – | – | > 30 µM (inactive) | > 30 µM (inactive) | – | > 30 µM (inactive)
CC(C)(C)c1nc(-c2cccc(NS(=O)(=O)c3c(F)cccc3F)c2F)c(-c2ccnc(N)n2)s1 [DABRAFENIB] | 0.318 µM (active) | > 30 µM (inactive) | > 30 µM (inactive) | > 30 µM (inactive) | > 30 µM (inactive) | > 30 µM (inactive) | 0.283 µM (active) | > 30 µM (inactive) | > 30 µM (inactive) | > 30 µM (inactive) | > 30 µM (inactive) | – | > 30 µM (inactive) | > 30 µM (inactive) | – | > 30 µM (inactive)
Cn1cc(C2=C(c3cn(C4CCN(Cc5ccccn5)CC4)c4ccccc34)C(=O)NC2=O)c2ccccc21 [ENZASTAURIN] | > 30 µM (inactive) | – | > 30 µM (inactive) | – | – | – | > 30 µM (inactive) | – | – | – | – | – | > 30 µM (inactive) | > 30 µM (inactive) | – | > 30 µM (inactive)
Cc1[nH]c(/C=C2\C(=O)Nc3ccccc32)c(C)c1CCC(=O)O [ORANTINIB] | > 30 µM (inactive) | 0.303 µM (active) | > 30 µM (inactive) | > 30 µM (inactive) | – | – | > 30 µM (inactive) | > 30 µM (inactive) | > 30 µM (inactive) | > 30 µM (inactive) | – | > 30 µM (inactive) | > 30 µM (inactive) | > 30 µM (inactive) | – | > 30 µM (inactive)
N#CC[C@H](C1CCCC1)n1cc(-c2ncnc3[nH]ccc23)cn1 [RUXOLITINIB] | > 30 µM (inactive) | – | > 30 µM (inactive) | – | – | – | > 30 µM (inactive) | – | – | – | – | – | > 30 µM (inactive) | > 30 µM (inactive) | – | > 30 µM (inactive)

Other lines, results leading:

Kd [1] | Kd [2] | Kd [3] | Kd (Ephrin type-A receptor 7) | Kd (Insulin receptor) | Kd [4] | Kd [5] | Kd [6] | Kd [7] | Kd [8] | Kd (Ephrin type-A receptor 2) | Kd [9] | Kd [10] | Kd [11] | Kd [12] | Kd (Adenosine kinase) | SMILES
> 30 µM (inactive) | – | > 30 µM (inactive) | – | – | – | > 30 µM (inactive) | – | – | – | – | – | > 30 µM (inactive) | > 30 µM (inactive) | – | 2.51 µM (active) | C[C@@H](Oc1cc(-n2cnc3ccc(CN4CCN(C)CC4)cc32)sc1C(N)=O)c1ccccc1C(F)(F)F [GSK-461364]
> 30 µM (inactive) | > 30 µM (inactive) | > 30 µM (inactive) | > 30 µM (inactive) | – | > 30 µM (inactive) | > 30 µM (inactive) | > 30 µM (inactive) | > 30 µM (inactive) | > 30 µM (inactive) | – | > 30 µM (inactive) | > 30 µM (inactive) | > 30 µM (inactive) | – | > 30 µM (inactive) | NC(=O)c1c(OCc2c(F)cc(Br)cc2F)nsc1NC(=O)NCCCCN1CCCC1 [OSI-632]
2.08 µM (active) | 0.015 µM (active) | > 30 µM (inactive) | > 30 µM (inactive) | – | 2.19 µM (active) | > 30 µM (inactive) | 2.32 µM (active) | > 30 µM (inactive) | > 30 µM (inactive) | – | 1.53 µM (active) | > 30 µM (inactive) | > 30 µM (inactive) | 2.41 µM (active) | > 30 µM (inactive) | CC(=O)NCC(=O)N1[C@@H]2CC[C@H]1c1ccc(Nc3ncc(C(F)(F)F)c(NC4CCC4)n3)cc12 [PF-03814735]
> 30 µM (inactive) | – | > 30 µM (inactive) | – | – | – | > 30 µM (inactive) | – | – | – | – | – | > 30 µM (inactive) | – | – | – | O=C(NOCCO)c1cc(CN2OCCCC2=O)c(F)c(F)c1Nc1ccc(I)cc1F [RO-4987655]
